From patent US9150568B2, “Compositions and methods for modulating FXR” (NOVARTIS AG, priority 2010, dated 2015)
Read-outs that look alike come from different tables or passages of the source.

Target: T1, human Farnesoid X Receptor (FXR) ligand binding domain (GST-FXR LBD) (Homo sapiens, UniProt Q96RI1)
T1 construct: purchased Invitrogen
T1 sequence (Q96RI1 193-472 isoform Q96RI1-2): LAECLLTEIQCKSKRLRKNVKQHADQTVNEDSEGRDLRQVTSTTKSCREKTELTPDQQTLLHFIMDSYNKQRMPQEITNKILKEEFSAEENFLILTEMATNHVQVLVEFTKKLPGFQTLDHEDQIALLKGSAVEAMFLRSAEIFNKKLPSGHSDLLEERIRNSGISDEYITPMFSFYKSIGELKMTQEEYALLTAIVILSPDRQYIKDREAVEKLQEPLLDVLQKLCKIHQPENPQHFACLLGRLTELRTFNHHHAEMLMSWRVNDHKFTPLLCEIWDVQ
Experiment: Human GST-FXR LBD co-activator interaction assay (HTRF)
Type: biochemical
How it was run: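 FRET (HTRF) read-out of ligand-induced binding between GST-FXR LBD and an SRC-1 peptide, detected with anti-GST cryptate and streptavidin-XL665 in buffer with 50 mM KF. Response % was normalized to DMSO and to the maximal GW4064 response. EC50 came from a four-parameter fit.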

[1] = GST-FXR LBD / biotin-SRC-1 peptide FRET, response relative to GW4064, read-out: FXR Co-activator interaction assay (EC50)

Compound	EC50 [1]	EC50
COc1cc(C(=O)O)cc2sc(N3C4CC[C@H]3C[C@H](OCc3c(C5CCC6(CC5)CC6)noc3C3CC3)C4)nc12 [Example 13-3B]	0.67 nM	–
CC1(C)CCC(c2noc(C3CC3)c2CO[C@@H]2CC3CC[C@@H](C2)N3c2nc3ccc(C(=O)O)cc3s2)CC1 [Example 8-3]	18 nM	–
Cc1nc(N2[C@@H]3CC[C@H]2C[C@@H](OCc2c(-c4ccccc4F)noc2C2CC2)C3)ccc1C(=O)O [Example 30-48]	34 nM	–
Cc1cc(C(=O)O)cnc1N1C2CC[C@H]1C[C@H](OCc1c(-c3ccccc3OC(F)(F)F)noc1C1CC1)C2 [Example 19-4B]	–	5 nM
Cc1cc(C(=O)O)nc(N2C3CC[C@H]2C[C@H](OCc2c(C4CCCCC4C(F)(F)F)noc2C2CC2)C3)n1 (stereo partly shown) [Example 8-6B]	100 nM	–
Cc1c(N2C3CC[C@H]2CC(OCc2c(-c4ccccc4OC(F)(F)F)noc2C2CC2)C3)ccc2oc(C(=O)O)cc12 (stereo partly shown) [Example 28-11]	1.3 nM	–
COC(=O)c1ccc(N2C3CC[C@H]2CC(OCc2c(-c4ccccc4C(F)(F)F)noc2C2CC2)C3)c(F)c1 (stereo partly shown) [Example 25-5A]	280 nM	–
COC(=O)c1cc(C)nc(N2C3CC[C@H]2C[C@H](OCc2c(-c4ccccc4OC(F)(F)F)noc2C2CC2)C3)n1 [Example 18-7A]	18 nM	–
Cn1nc(C(=O)O)c2ccc(N3C4CC[C@H]3CC(OCc3c(-c5ccccc5OC(F)(F)F)noc3C3CC3)C4)cc21 (stereo partly shown) [Example 28-25]	1.1 nM	–
Cc1cc(C(=O)O)nc(N2C3CC[C@H]2CC(OCc2c(-c4ccccc4Cl)noc2C2CC2)C3)n1 (stereo partly shown) [Example 30-22]	19 nM	–
COC(=O)c1cc(Br)c2nc(N3C4CC[C@H]3CC(OCc3c(-c5ccccc5OC(F)(F)F)noc3C3CC3)C4)sc2c1 (stereo partly shown) [Example 30-39]	36 nM	–
Cc1ccccc1-c1noc(C2CC2)c1CO[C@H]1C[C@H]2CC[C@@H](C1)N2c1nc2ccc(C(=O)O)cc2s1 [Example 30-4]	0.7 nM	–
COC(=O)c1ccc(N2C3CC[C@H]2C[C@H](OCc2c(-c4ccccc4OC(F)(F)F)noc2C2CC2)C3)nc1 [Example 18-3A]	8 nM	–
COC(=O)c1cc(C)c2nc(N3C4CC[C@H]3CC(OCc3c(-c5ccccc5C)noc3C3CC3)C4)sc2c1 (stereo partly shown) [Example 30-37]	140 nM	–
O=C(O)c1cc(C2CC2)nc(N2C3CC[C@H]2CC(OCc2c(-c4ccccc4OC(F)(F)F)noc2C2CC2)C3)n1 (stereo partly shown) [Example 30-42]	3 nM	–
COC(=O)c1cnc(N2C3CC[C@H]2CC(OCc2c(-c4ccccc4C(F)(F)F)noc2C2CC2)C3)cn1 (stereo partly shown) [Example 21-3A]	180 nM	–
O=C(O)c1ccc2nc(N3C4CC[C@H]3C[C@H](OCc3c(-c5ccccc5C(F)(F)F)noc3C3CC3)C4)sc2c1 [Example 6-1B]	0.67 nM	–
O=C(O)c1ccnc(N2C3CC[C@H]2CC(OCc2c(-c4ccccc4OC(F)F)noc2C2CC2)C3)n1 (stereo partly shown) [Example 22-2B]	9 nM	–
O=C(O)c1cc(F)c(N2C3CC[C@H]2CC(OCc2c(-c4ccccc4OC(F)(F)F)noc2C2CC2)C3)c(F)c1 (stereo partly shown) [Example 24-1B]	8 nM	–
COC(=O)c1cccc(N2C3CC[C@H]2CC(OCc2c(-c4ccccc4C(F)(F)F)noc2C2CC2)C3)n1 (stereo partly shown) [Example 21-6A]	60 nM	–
O=C(O)c1cnc2cc(N3C4CC[C@H]3CC(OCc3c(-c5ccccc5OC(F)(F)F)noc3C3CC3)C4)ccn12 (stereo in doubt) [Example 32-1, 7-(3-((5-cyclopropyl-3-(2-(trifluoromethoxy)phenyl)isoxazol-4-yl)methoxy)-8-azabicyclo[3.2.1]octan-8-yl)imidazo[1,2-a]pyridine-3-carboxylic acid]	3 nM	–
O=C(O)c1cnc(N2C3CC[C@H]2C[C@H](OCc2c(-c4ccccc4OC(F)(F)F)noc2C2CC2)C3)nc1C(F)(F)F [Example 19-2B]	20 nM	–
